These are literature values, as cited in patent US20260191871A1, “USE OF ANTIVIRAL AGENTS, COMPOSITION OF MATTER, COMBINATION PREPARATIONS/AGENTS TO TREAT CHRONIC DISEASES ASSOCIATED WITH EPSTEIN-BARR VIRUS AND OTHER HUMAN HERPES VIRUSES” (EPIPHANY BIOSCIENCES, priority 2022, published 2026).

The subject of data set [1] is Epstein-Barr virus (EBV).
In data set [2] the test system is HSV-1.
The test system of data set [3] is human herpesvirus-6 (HHV-6).
Data set [4] deals with human varicella zoster virus (VZV).
Data set [5] concerns HSV-2.
For data set [6] the following is noted: compared with the other polymorphic forms (O'Neill et al. '456).
Data set [7] concerns CMV.
Data set [8] concerns zoster. The settings on record: suspension at 250, 500 and 750 mg twice daily for 7 days, zoster patients, acyclovir as control.
The test system of data set [9] is EBV.
The conditions of data set [10]: human, multiple dosing, total daily doses of up to 6.0 g.

`Nc1nc2c(ncn2C[C@H](CO)CCO)c(=O)[nH]1` [Formula H2G]: in data set [1], the “activity against Epstein-Barr virus (EBV)” value was “potent activity”. In addition, the “activity against HSV-1” value in [2] is “potent activity”. The “activity against human herpesvirus-6 (HHV-6)” value in data set [3] was “potent activity”. In addition, the “activity against human varicella zoster virus (VZV)” value in [4] is reported as “potent activity”. In addition, the “activity against HSV-2” value in data set [5] is “potent activity”.
In the case of `CCCCCCCCCCCCCCCCCC(=O)OC[C@H](CCOC(=O)[C@@H](N)C(C)C)Cn1cnc2c(=O)[nH]c(N)nc21` [Polymorph A], the “thermodynamic stability among polymorphs of valomaciclovir stearate” value in [6] is reported as “thermodynamically the most stable polymorph”.
As for `CCCCCCCCCCCCCCCCCC(=O)OC[C@H](CCOC(=O)[C@@H](N)C(C)C)Cn1cnc2c(=O)nc(N)[nH]c21` [valomaciclovir stearate, [(2R)-4-[(2S)-2-amino-3-methylbutanoyl]oxy-2-[(2-amino-6-oxo-3H-purin-9-yl)methyl]butyl]octadecanoate], the “impact on CMV” value in data set [7] was “does not impact CMV”. In addition, in data set [8], the zoster lesion healing entry was “proof-of-concept for zoster lesion healing”. Besides, in [9], the “replication of EBV” value is reported as “suppresses replication of EBV”. Also, in data set [10], the safety and tolerability entry was “safe and well tolerated”.
